Laboratory results taken from patent US20120152149A1, “USE OF 1,3-DIOLS AS BIOCIDES” (BASF SE, priority 2009, published 2012).

Experiments:
Type in all cases: cell-based
[1] = test system: P. aeruginosa ATCC 15442; test: Suspension test EN 1040, bactericidal activity; conditions: 1000 ppm of active substance
Method: The bactericidal activity of the substances of this invention was carried out in a suspension test corresponding to the European standard EN 1040 and compared with the activities of customary commercial products. For this, only relatively small modifications were made. The substances of the formula (1) were dissolved in water or ethanol to give a 1% strength stock solution. For determining the bactericidal activities, the test mixtures were selected such that 1000 ppm of active substance was present in an aqueous solution. The procedure was the same with the comparison samples. For the results shown in table 2, the test mixtures were inoculated with the following bacterial strains such that the stated germ densities were present in the test mixtures. P. aeruginosa ATCC 15442 1−2×10^7 CFU/ml The test mixtures were incubated at room temperature (22° C.+/−2° C.). After defined contact times, aliquots of 1 ml were taken in order to determine the surviving germ count. For the deactivation of the microbicidal activity of the diols, the aliquots were diluted in 1:10 dilution steps in a solution of TS broth with 10% Tween, 3% lecithin, 0.1% histidines and 0.5% sodium thiosulfate and the 10^−2 and 10^−3 dilution stages were used for determining the surviving germ count. For this purpose, corresponding aliquots were plated out on Caso medium with inhibitor (Merck) and incubated at 37° C. for 24 h. The ascertained surviving germ counts were in each case compared with a mixture containing water (water control) by determining the logarithmic reduction in the surviving germ counts based on the water control.

[2] = test system: P. aeruginosa ATCC 15442; test: Preservation stress test, example formulation 1 (standard emulsion O/W); conditions: 1% active substance
Method: (§1) Preservation stress tests (PSTs) were carried out in order to determine the preserving activity of the diols. In the preservation stress test, this is simulated through artificial loadings with microorganisms. These can either be inoculated as mixed population or individually in mixtures independent of one another. The inoculated product samples are incubated under defined conditions and, after defined times, samples are taken in order to determine the germ loading. In the case of adequate preservation, the number of microorganisms should, depending on the type, either decrease or remain constant in order to satisfy the requirements specified, e.g. in Ph. Eur. 6.0. To investigate the preserving effect of the diols, application-typical amounts of the diols were incorporated into example formulations. […] [table] These example formulations were used to prepare various mixtures which each comprised 1% active substance or comprised water instead of the active substance as placebo mixtures. These mixtures were in each case inoculated with the test germs such that a germ loading of 10^5-10^6 CFU/g was present in the test mixture. The bacteria were either used individually for the inoculation or as a mixed culture. To determine the starting germ count, immediately after inoculation, an aliquot was taken, diluted in dilution medium (phosphate buffer, 0.07 molar pH 7.4 (+/−0.2), with 1% Tween 80+0.3% soya lecithin), and the surviving germ count was determined in the dilution stages 10^−1 to 10^−3. The inoculated product samples then incubated for a total of 28 d at 20-25° C. After 2 d, 7 d, 14 d and after 28 d, aliquots were taken and diluted in dilution medium (phosphate buffer, 0.07 molar pH 7.4 (+/−0.2), with 1% Tween 80+0.3% soya lecithin). The surviving germ counts were determined in the dilution stages 10^−1 to 10^−4. The reference point taken for determining the reduction in germ count was the respective initial value of the sample. The results were given as logarithmic reductions.

[3] = test system: E. coli ATCC 10536; test: as above; conditions: 1% active substance
Method: as §1

[4] = test system: S. aureus ATCC 6538; test: as above; conditions: 1% active substance
Method: as §1

[5] = test system: A. niger ATCC 6275; test: Suspension test EN 1275, fungicidal activity against molds; conditions: 1% active substance in the test
[6] = test system: C. albicans ATCC 10231; test: Suspension test EN 1275, activity against yeasts; conditions: 1000 ppm of active substance
Method: The fungicidal activity was determined in accordance with European standard EN 1275 and compared with the activities of customary commercial products, with only slight modifications having been carried out. The substances of the formula (1) were dissolved in water or ethanol to give a 1% strength stock solution. To determine the microbicidal activities of the diols against yeasts, the test mixtures were selected such that 1000 ppm of active substance was present in an aqueous solution. For the results shown in table 2, the test mixtures were inoculated with the following yeast and mold strains such that the stated germ densities were present in the test mixtures. C. albicans ATCC 10231 1−2×10^6 CFU/ml The test mixtures were incubated at room temperature (22° C.+/−2° C.). After defined contact times, aliquots of 1 ml were taken in order to determine the surviving germ count. For the deactivation of the microbicidal activity of the diols, the aliquots were diluted in 1:10 dilution steps in a solution of Sabouraud medium with 10% Tween, 3% lecithin, 0.1% histidines and 0.5% sodium thiosulfate and the 10^−2, 10^−3 and 10^−4 dilution stages were used for determining the surviving germ count. For this, corresponding aliquots were plated out on Sabouraud medium with inhibitor and incubated at 30° C. for 2 d. The ascertained surviving germ counts were in each case compared with a mixture containing water (water control) by determining the logarithmic reduction in the surviving germ counts based on the water control.

Structure (SMILES): CCCC(O)CO (centres unmarked) [1,2-Pentanediol, 1,2-pentanediol, reference compound]
- Microbicidal activity given as logarithmic reduction in germ count ([1]; contact time 5 min): <1 log. red.
- Microbicidal activity given as logarithmic reduction in germ count ([2]; 48 h): 0 log. Red.
- Microbicidal activity given as logarithmic reduction in germ count ([2]; 7 d): ≧3 log. Red.
- Microbicidal activity given as logarithmic reduction in germ count ([2]; 14 d): ≧3 log. Red.
- Microbicidal activity given as logarithmic reduction in germ count ([3]; 48 h): 0 log. Red.
- Microbicidal activity given as logarithmic reduction in germ count ([3]; 7 d): 0 log. Red.
- Microbicidal activity given as logarithmic reduction in germ count ([3]; 14 d): 0 log. Red.
- Microbicidal activity given as logarithmic reduction in germ count ([4]; 48 h): 0 log. Red.
- Microbicidal activity given as logarithmic reduction in germ count ([4]; 7 d): 0 log. Red.
- Microbicidal activity given as logarithmic reduction in germ count ([4]; 14 d): 0 log. Red.
- Microbicidal activity given as logarithmic reduction in germ count ([5]; contact time 24 h): <1 log. red.
- Microbicidal activity given as logarithmic reduction in germ count ([5]; contact time 7 d): <1 log. red.

Structure (SMILES): CCCCCCCCC(C)(CO)CO [OMPD, 2-octyl-2-methylpropane-1,3-diol]
- Microbicidal activity given as logarithmic reduction in germ count ([1]; contact time 5 min): 4.5 log. red.
- Microbicidal activity given as logarithmic reduction in germ count ([1]; contact time 30 min): 4.7 log. red.
- Microbicidal activity given as logarithmic reduction in germ count ([6]; contact time 5 min): >4 log. red.
- Microbicidal activity given as logarithmic reduction in germ count ([6]; contact time 30 min): >4 log. red.
- Microbicidal activity given as logarithmic reduction in germ count ([6]; contact time 24 h): >4 log. red.
- Microbicidal activity given as logarithmic reduction in germ count ([5]; contact time 24 h): <1 log. red.
- Microbicidal activity given as logarithmic reduction in germ count ([5]; contact time 7 d): 2.6 log. red.

Structure (SMILES): CCCCCC(CO)(CO)CCC [PPPD, 2-pentyl-2-propylpropane-1,3-diol]
- Microbicidal activity given as logarithmic reduction in germ count ([1]; contact time 5 min): 3.2 log. red.
- Microbicidal activity given as logarithmic reduction in germ count ([1]; contact time 30 min): 3.1 log. red.
- Microbicidal activity given as logarithmic reduction in germ count ([6]; contact time 5 min): 1.7 log. red.
- Microbicidal activity given as logarithmic reduction in germ count ([6]; contact time 30 min): >5 log. red.
- Microbicidal activity given as logarithmic reduction in germ count ([6]; contact time 24 h): >5 log. red.
- Microbicidal activity given as logarithmic reduction in germ count ([5]; contact time 24 h): 2.9 log. red.
- Microbicidal activity given as logarithmic reduction in germ count ([5]; contact time 7 d): >4 log. red.
